Data taken from BigSolDB 2.1.

COc1cc2c(cc1OC)-c1cc3ccc(OC)c(OC)c3c[n+]1CC2.[Cl-]
solubility (mole fraction)
Details	283.15 K	288.15 K	293.15 K	298.15 K	303.15 K	308.15 K	313.15 K	318.15 K	323.15 K	328.15 K
in ethanol	0.00254	0.00299	0.00366	0.0045	0.00543	0.00651	0.00779	0.00914	0.0108	0.0127
in ethylene glycol	0.00173	0.00202	0.00242	0.003	0.00362	0.00441	0.00529	0.00631	0.00745	0.00882
in isopropanol	0.000177	0.000218	0.00028	0.000374	0.000479	0.000603	0.000754	0.000933	0.00115	0.00141
in propylene glycol	6.32e-06	9.38e-06	1.36e-05	2.11e-05	3.12e-05	4.53e-05	6.48e-05	9.27e-05	0.00013	0.00018
in water	0.000565	0.000693	0.000877	0.0011	0.00136	0.00165	0.002	0.0024	0.00287	0.00341
